From patent US6814967B2, “Antibodies to cortistatin: neuropeptides, compositions and methods” (The Scripps Research Institute, priority 1996, dated 2004)

Tests used:
[1] = tested on: somatostatin receptors on GH4 pituitary cells; assay: Displacement of 125I-somatostatin-14 bound to GH4 pituitary cells; format: binding; conditions: for Kd: GH4 pituitary cells, four independent experiments, read-out: estimated Kd, displacement of 125I-somatostatin-14 binding; for displacement of 125I-somatostatin: GH4 cells, control peptides
Method: To determine the binding specificity of cortistatin and in view of its similarity to somatostatin, assays to assess the binding of chemically synthesized, linear cortistatin-14 peptide prepared in Example 2 to somatostatin receptors on GH4 pituitary cells were performed.
GH4 cells, obtained from Dr. Kaare M. Gautvik (University of Oslo) or ATCC, were grown in MEM medium with 12% fetal calf serum in 6-well plates at 10^6 cells/ml. Each well then received 10^6 cpm/ml of ^125I somatostatin-14 (NEN, DuPont, Wilmington, Del.) alone or with increasing concentrations of somatostatin-14 peptide (Sigma) or cortistatin-14 peptide (95%, purified by reverse phase HPLC ranging from 10^−10 M to 10^−6 M. Aprotinin and leupeptin (Sigma; […]) was included as it reduced non-specific binding to 20% of total bound radioactivity. The binding of ^125I somatostatin in the presence of 10^−7 M somatostatin was considered as unspecific binding as described by Schonbrunn et al., J. Biol. Chem., 235:6473-6483 (1978).

[2] = tested on: endogenous somatostatin receptors expressed by GH4 cells; assay: cAMP assay in GH4 cells stimulated with VIP or TRH; format: cell-based
Method: To investigate whether cortistatin modulates somatostatin receptor activation, the concentration of cyclic AMP (cAMP) was determined following stimulation of GH4 cells with VIP or TRH in the presence or absence of either cortistatin or somatostatin.
For the cAMP assays, GH4 cells were grown under the same conditions as for the binding assays. The cells were washed with MEM without serum, but containing leupeptin, aprotinin and 1 mM 3-isobutyl-methyl-xantine (IBMX). The cells were pretreated with somatostatin-14 and cortistatin-14 for 15 minutes before VIP at 10^−6 M was added or TRH at 10^−7 M. To each well, ^3H cyclic AMP was added before the content was removed, to calculate recovery. For cAMP measurements, a RIA kit (Amersham, Arlington Heights, Ill.) was used according to the instructions of the manufacturer. Each time point represents 2-4 replicates and the experiments were carried out twice.

[3] = tested on: hippocampal CA1 pyramidal cells; assay: Current-clamp intracellular recording in hippocampal slices; format: cell-based, rat; conditions: for time to maximum steady effect (time-to-peak) after onset of the response: hippocampal slice CA1 neurons, superfusion
Method: Somatostatin is known to hyperpolarize central neurons by increasing potassium conductances as described by Inoue et al., J. Physiol., 407:177-198 (1988), including the voltage-dependent potassium M current (see Moore et al., Science, 239:278-280 (1988) and Jacquin et al., Proc. Natl. Acad. Sci., USA, 85:948-952 (1988)). To complete the characterization of the physiological role of cortistatin, assays were performed to determine whether cortistatin had somatostatin-like effects on hippocampal neurons by means of current- and voltage-clamp recordings in the hippocampal slice preparation.
Intracellular recordings were obtained in rat hippocampal slices using sharp glass micropipettes as previously described by Schweitzer et al., J. Neurosci., 13:2033-2049 (1993). Recordings were made from 11 hippocampal CA1 pyramidal cells with an average resting membrane potential of −70 Å 1 mV (mean Å s.e.m.) and action potential of 103 Å 2 mV. Current-clamp recording of a CA1 neuron manually depolarized to −65 mV (resting membrane potential was −70 mV) to elicit action potential firing (upward deflections, truncated) is shown in FIG. 6A.
Superfusion of […] cortistatin-14 peptide (bar above record), prepared as described in Example 3, like somatostatin-14, hyperpolarized these neurons (10 of 11 cells), in association with inhibition of action potential firing, followed by recovery to control levels upon washout of the peptide. Unlike somatostatin, the cortistatin-14-mediated effect developed slowly, reaching a maximum steady effect six to eight minutes after the onset of the response. This contrasted with the time-to-peak of somatostatin′s effect on these neurons under the same experimental conditions that was much shorter (2-3 minutes).

[4] = tested on: voltage-dependent potassium M current (IM); assay: Voltage-clamp recording of M current (IM) relaxation in CA1 neurons; format: cell-based, rat; design: dose or concentration left out as unconfirmed; conditions: 7 minutes superfusion; CA1 neuron held at −43 mV
From the text: To determine the mechanism of the cortistatin-induced inhibition, we assessed the effect of cortistatin on the M current (IM), a non-inactivating voltage-dependent potassium current seen in hippocampal neurons as described by Halliwell et al., Brain Res., 250:71-92 (1982).
In voltage clamp assays, the IM relaxation was observed by applying hyperpolarizing steps (5 to 25 mV) from a holding potential of −43 to −48 mV.

CA1 pyramidal neurons = assay: Population spike amplitudes in CA1 in vivo, iontophoretic application, anesthetized rats; design: species or system rat; conditions: microiontophoretic application, 1 mg/ml in saline; half-maximal and maximal stimulation; P<0.05
Method: The inhibitory effects of cortistatin on the excitability of CA1 pyramidal neurons as viewed by population spike (PS) amplitudes was paralleled in vivo in the anesthetized preparation. For the in vivo studies, male Sprague-Dawley rats were anesthetized with halothane (0.9-1.1%). The commisural pathway was stimulated and elicited field potentials in the CA1 region essentially as described by Steffensen et al., Brain Res., 538:46-53 (1991). Cortistatin (1 mg/ml) was dissolved in saline and administered iontophoretically through one barrel of a multibarreled micropipette. […] Asterisks represent significance levels at P<0.05. The data was compiled with software (LabView Instruments, National Instruments, Austin, Tex.) as described by Steffensen et al., Brain Res., 538:46-53 (1991).
Stimulation of the monosynaptic afferent input to the CA1 region evoked a characteristic population spike (PS) that represents the synchronous firing of pyramidal cells, superimposed on a field synaptic potential waveform as described by Anderson et al., Exp. Brain Res., 13:208-221 (1971).

[5] = tested on: sleep-wake cycle of the rat; assay: Intracerebroventricular administration, EEG and sleep-wake cycle of the rat; format: in vivo
From the text: As cortistatin is expressed in interneurons located in the cerebral cortex and hippocampus, its effects on cortical measures of neuronal excitability was next determined in vivo. Up to 6 nmoles of HPLC-purified synthetic cortistatin-14 peptide prepared in Example 3 were infused into the brain ventricles of rats (n=5) and recorded the electroencephalogram (EEG) for four hours after peptide injection. […] Standard methodologies for chronic electrophysiological preparation and data acquisition were used. Procedures for EEG recordings and PP studies are as described by Prospero-Garcia et al., Pharmacol. Biochem. Behav., 49:413 (1994) and Steffensen et al., Brain Res., 652:149 (1994).
FIGS. 7A-1, 7A-2, 7A-3 and 7A-4 show the effects of the intracerebroventricular administration of cortistatin on the sleep-wake cycle of the rat. FIGS. 7A-1, 7A-2, 7A-3 and 7A-4 respectively illustrate wakefulness, slow-wave sleep 1, slow-wave sleep 2 and REM sleep. The effects of the sleep cycle were assessed with cortistatin-14 dosages at 100 ng, 500 ng, […] as plotted from left to right in the bar graphs as shown against saline control. Asterisks represent significance levels of P<0.05; ANOVA.

hippocampal CA1 neurons = assay: Paired-pulse (PP) responses in CA1 neurons in vivo, iontophoretic application; design: species or system rat; conditions: for effect on PP responses (PP inhibition) in CA1: applied alone iontophoretically, ACh 0.9 M, somatostatin 1.5 mM, 80 ms interstimulus interval
From the text: Stimulation intensity was adjusted after drug treatment to achieve control PS amplitudes before performing PP studies.

[6] = tested on: cerebral cortex (visual cortex) local EEG; assay: Local EEG activity in visual cortex of anesthetized rats, microiontophoretic application; format: in vivo, rat
Method: To investigate further whether cortistatin also interacts with cholinergic systems that regulate cortical function, the effects of cortistatin on ACh-induced desynchronization of EEG in the cerebral cortex of anesthetized rats was determined. Thus, ACh and cortistatin was microiontophoretically (100-250 nA) applied on local EEG activity recorded in the visual cortex. For the data shown in FIG. 7G, the results from the experimental groups were derived from averaged EEG spectral activity determinations and expressed as means Å s.e.m. (Asterisk represents significance levels P<0.05 from baseline; two asterisks represent significance levels P<0.05 from ACh; ANOVA).

[7] = biological target: somatostatin receptor 1 (SSTR1) (Homo sapiens, UniProt P30872); assay: Binding studies to cloned somatostatin receptors
somatostatin receptor 1 (SSTR1), sequence (P30872 whole entry, species assumed): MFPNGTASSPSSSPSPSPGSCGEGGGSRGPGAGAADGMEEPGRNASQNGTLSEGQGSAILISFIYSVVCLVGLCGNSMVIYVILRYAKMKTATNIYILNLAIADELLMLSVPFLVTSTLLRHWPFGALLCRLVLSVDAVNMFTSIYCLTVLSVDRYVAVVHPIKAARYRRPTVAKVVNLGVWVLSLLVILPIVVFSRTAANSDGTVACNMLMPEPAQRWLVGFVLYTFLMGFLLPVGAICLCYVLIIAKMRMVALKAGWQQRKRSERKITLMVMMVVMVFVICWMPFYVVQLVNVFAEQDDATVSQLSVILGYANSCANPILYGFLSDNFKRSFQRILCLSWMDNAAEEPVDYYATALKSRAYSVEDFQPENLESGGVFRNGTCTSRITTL

SSTR 2-5 = assay: Binding studies to cloned somatostatin receptors; conditions: relative to somatostatin
[8] = peptide alone at 10^−6 M, compared to control

Compound: 14-residue peptide of SEQ ID NO 8 (PCKNFFWKTFSSCK), same sequence for rat and mouse, chemically synthesized [cortistatin-14]
- Kd [1]: 5 nM
- intracellular concentration of cAMP [2, 8]: no effect
- time to maximum steady effect (time-to-peak) after onset of the response [3]: six to eight
- effect on membrane potential of CA1 neurons ([3]; superfusion of 1 M, 10 of 11 cells, inhibition of action potential firing, recovery on washout): hyperpolarized
- increase of the amplitude of the IM relaxation [4]: 60%
- population spike (PS) amplitudes (CA1 pyramidal neurons): significantly decreased
- EEG cortical slow waves (1-4 Hz) ([5]; infused into brain ventricles of rats): dramatic increase
- spontaneous behavior ([5]; infused into brain ventricles of rats, compared to saline-injected rats): clear hypoactive behavior
- share of the four hour recording time in slow-wave sleep ([5]; intracerebroventricular, 40% in saline-treated control animals): up to 75%
- paradoxical (REM) sleep ([5]; intracerebroventricular, highest dose): significant reduction
- effect on PP responses (PP inhibition) in CA1 (hippocampal CA1 neurons): no significant effects
- effect on the ACh-induced reduction of PP inhibition (hippocampal CA1 neurons; simultaneous iontophoretic application with ACh, P<0.05): completely antagonized
- local EEG (averaged EEG power spectra) ([6]; applied alone, 100-250 nA, visual cortex, anesthetized rats): not different from baseline
- effect of ACh on local EEG (increase in fast frequency activity) ([6]; simultaneous electrophoretic application with ACh): effectively prevented
- affinity for somatostatin receptor 1 (SSTR1) [7]: comparable to somatostatin
- affinity for SSTR 2-5 (SSTR 2-5): far lesser affinity

Compound: C[C@H](N)C(=O)NCC(=O)N[C@H]1CSSC[C@@H](C(=O)O)NC(=O)[C@H](CO)NC(=O)[C@H]([C@@H](C)O)NC(=O)[C@H](Cc2ccccc2)NC(=O)[C@H]([C@@H](C)O)NC(=O)[C@H](CCCCN)NC(=O)[C@H](Cc2c[nH]c3ccccc23)NC(=O)[C@H](Cc2ccccc2)NC(=O)[C@H](Cc2ccccc2)NC(=O)[C@H](CC(N)=O)NC(=O)[C@H](CCCCN)NC1=O [somatostatin-14, reference compound]
- Kd [1]: 5 nM
- intracellular concentration of cAMP [2, 8]: no effect
- time to maximum steady effect (time-to-peak) after onset of the response [3]: 2 to 3 min
- effect on PP responses (PP inhibition) in CA1 (hippocampal CA1 neurons): markedly decreased PP inhibition

Compound: vasoactive intestinal peptide (HSDAVFTDNYTRLRKQMAVKKYLNSILN) [VIP, control peptide and cAMP stimulator (Bachem)]
- displacement of 125I-somatostatin [1]: did not show any displacement
- intracellular concentration of cAMP [2, 8]: increased

Compound: thryoid releasing hormone (QHP) [TRH, control peptide and cAMP stimulator (Calbiochem)]
- displacement of 125I-somatostatin [1]: did not show any displacement
- intracellular concentration of cAMP ([2]; peptide alone at 10^−7 M): increased
